In PubChem BioAssay AID1919005 (Molecular Pharmacology Branch, DTP, NCI, 2023):
Several values for one entry are separate records, joined by “and”; a condition that tells them apart may be missing. Equal values may be shown once. Values belong to the molecule of their own block, whether it stands above or below them.

System: 855422-203-R-J1-PDC complex spheroid growth
Test: Anticancer human tumor 855422-203-R-J1-PDC patient-derived bladder carcinoma cell line growth inhibition [AhR]
Conditions: for viability, T/C: stronger effect = lower value
How it was run: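 Spheroids combined tumor cells with HUVEC endothelial cells and human MSCs as stroma. AhR antagonists were paired with standard or investigational drugs, each dosed in half-log steps down from near clinical Cmax, or from 10 microM where Cmax was unknown.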

[1] = curve of first compound, second compound 0.1 µM
[2] = curve of first compound, second compound 0.316 µM
[3] = curve of first compound, second compound 1 µM
[4] = curve of first compound, second compound 3.16 µM
[5] = curve of first compound, second compound 10 µM
[6] = second compound 0.1 µM, first compound 0.00949 µM
[7] = second compound 0.1 µM, first compound 0.03 µM
[8] = second compound 0.1 µM, first compound 0.0949 µM
[9] = second compound 0.1 µM, first compound 0.3 µM
[10] = second compound 0.316 µM, first compound 0.00949 µM
[11] = second compound 0.316 µM, first compound 0.03 µM
[12] = second compound 0.316 µM, first compound 0.0949 µM
[13] = second compound 0.316 µM, first compound 0.3 µM
[14] = second compound 1 µM, first compound 0.00949 µM
[15] = second compound 1 µM, first compound 0.03 µM
[16] = second compound 1 µM, first compound 0.0949 µM
[17] = second compound 1 µM, first compound 0.3 µM
[18] = second compound 3.16 µM, first compound 0.00949 µM
[19] = second compound 3.16 µM, first compound 0.03 µM
[20] = second compound 3.16 µM, first compound 0.0949 µM
[21] = second compound 3.16 µM, first compound 0.3 µM
[22] = second compound 10 µM, first compound 0.00949 µM
[23] = second compound 10 µM, first compound 0.03 µM
[24] = second compound 10 µM, first compound 0.0949 µM
[25] = second compound 10 µM, first compound 0.3 µM
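Also: spheroids exposed to agents for seven days before readout.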
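For viability, T/C in this document: percent of DMSO vehicle control luminescence viability.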

IC50 [1]: > 3000 nM
IC50 [2]: > 3000 nM
IC50 [3]: > 3000 nM
IC50 [4]: > 3000 nM
IC50 [5]: > 3000 nM
SMILES: CCN(c1cc(-c2ccc(CN3CCOCC3)cc2)cc(C(=O)NCc2c(C)cc(C)[nH]c2=O)c1C)C1CCOCC1 + CC(CO)NC(=O)c1cc(-c2ccc(Cl)cc2)nn(-c2cnn(C)c2)c1=O
viability, T/C [6]: 94.1%
viability, T/C [7]: 102%
viability, T/C [8]: 94.3%
viability, T/C [9]: 95.7%
viability, T/C (second compound 0.1 µM, first compound 0.949 µM): 86.2%
viability, T/C (second compound 0.1 µM, first compound 3 µM): 88.5%
viability, T/C [10]: 112%
viability, T/C [11]: 109%
viability, T/C [12]: 100%
viability, T/C [13]: 95.5%
viability, T/C (second compound 0.316 µM, first compound 0.949 µM): 92.1%
viability, T/C (second compound 0.316 µM, first compound 3 µM): 92.6%
viability, T/C [14]: 100%
viability, T/C [15]: 105%
viability, T/C [16]: 114%
viability, T/C [17]: 94.5%
viability, T/C (second compound 1 µM, first compound 0.949 µM): 91.9%
viability, T/C (second compound 1 µM, first compound 3 µM): 88.8%
viability, T/C [18]: 98.6%
viability, T/C [19]: 95.2%
viability, T/C [20]: 103%
viability, T/C [21]: 94.1%
viability, T/C (second compound 3.16 µM, first compound 0.949 µM): 86%
viability, T/C (second compound 3.16 µM, first compound 3 µM): 77.4%
viability, T/C [22]: 96.5%
viability, T/C [23]: 102%
viability, T/C [24]: 83.5%
viability, T/C [25]: 92.8%
viability, T/C (second compound 10 µM, first compound 0.949 µM): 103%
viability, T/C (second compound 10 µM, first compound 3 µM): 80.7%

IC50 (curve of compound): > 1000 nM
SMILES: Nc1ncn(C2CC(O)C(CO)O2)c(=O)n1 (stereo not given)
viability, T/C (compound 0.00316 µM): 94.3% and 107% and 95.8%
viability, T/C (compound 0.01 µM): 96.5% and 98.7% and 94.9%
viability, T/C (compound 0.0316 µM): 91.6% and 97.8% and 87.2%
viability, T/C (compound 0.1 µM): 87.2% and 88.3% and 87.7%
viability, T/C (compound 0.316 µM): 86.9% and 90.8% and 79.8%
viability, T/C (compound 1 µM): 83.3% and 83.5% and 78.8%

IC50 (curve of compound): 2.79 nM and 5.76 nM and 1.85 nM
SMILES: CC(C)CC(NC(=O)C(Cc1ccccc1)NC(=O)c1cnccn1)B(O)O (stereo not given)
viability, T/C (compound 0.000949 µM): 110% and 101% and 118%
viability, T/C (compound 0.00949 µM): 0.21% and 0.27% and 0.11%
viability, T/C (compound 0.03 µM): 0.16% and 0.14% and 0.42%
viability, T/C (compound 0.0949 µM): 0.15% and 0.14% and 0.12%
viability, T/C (compound 0.3 µM): 0.19% (2×) and 0.21%

IC50 (curve of compound): 244 nM and 546 nM and 421 nM
SMILES: CC1COCCN1c1cc(-c2ccnn2C)c2ccnc(-c3ccn[nH]3)c2n1 (stereo not given)
viability, T/C (compound 0.00316 µM): 99.8% and 104% and 109%
viability, T/C (compound 0.01 µM): 100% and 108% and 107%
viability, T/C (compound 0.0316 µM): 106% and 101% and 96.2%
viability, T/C (compound 0.1 µM): 98.3% and 103% and 91.9%
viability, T/C (compound 0.316 µM): 36.1% and 71.9% and 59.7%
viability, T/C (compound 1 µM): 12.2% and 25.8% and 17.1%

IC50 [1]: > 300 nM
IC50 [2]: > 300 nM
IC50 [3]: > 300 nM
IC50 [4]: 1.28 nM
IC50 [5]: < 0.949 nM
SMILES: Nc1ncn(C2CC(O)C(CO)S2)c(=O)n1 (stereo not given) + Cc1cncc(-c2nc(NCCc3c[nH]c4ccccc34)c3ncn(C(C)C)c3n2)c1
viability, T/C (second compound 0.1 µM, first compound 0.000949 µM): 92.3%
viability, T/C (second compound 0.1 µM, first compound 0.003 µM): 101%
viability, T/C [6]: 92.9%
viability, T/C [7]: 90.4%
viability, T/C [8]: 84.7%
viability, T/C [9]: 72.2%
viability, T/C (second compound 0.316 µM, first compound 0.000949 µM): 90.1%
viability, T/C (second compound 0.316 µM, first compound 0.003 µM): 83.8%
viability, T/C [10]: 77.4%
viability, T/C [11]: 85%
viability, T/C [12]: 78.2%
viability, T/C [13]: 69.8%
viability, T/C (second compound 1 µM, first compound 0.000949 µM): 74.1%
viability, T/C (second compound 1 µM, first compound 0.003 µM): 88.2%
viability, T/C [14]: 77.3%
viability, T/C [15]: 73.6%
viability, T/C [16]: 79.1%
viability, T/C [17]: 77.1%
viability, T/C (second compound 3.16 µM, first compound 0.000949 µM): 49.1%
viability, T/C (second compound 3.16 µM, first compound 0.003 µM): 51.8%
viability, T/C [18]: 41.9%
viability, T/C [19]: 25.1%
viability, T/C [20]: 42%
viability, T/C [21]: 37.5%
viability, T/C (second compound 10 µM, first compound 0.000949 µM): 28.3%
viability, T/C (second compound 10 µM, first compound 0.003 µM): 26.9%
viability, T/C [22]: 19.7%
viability, T/C [23]: 15.5%
viability, T/C [24]: 22.8%
viability, T/C [25]: 24.3%
